“And” between values parts separate entries of the source, which are not always exact repeats. Identical values can stand only once.
Assays:
Assay in all cases: biochemical
MAP4K2 = molecular target: T1, MAP4K2 (Homo sapiens, UniProt Q12851)
T1 sequence (Q12851 1-820): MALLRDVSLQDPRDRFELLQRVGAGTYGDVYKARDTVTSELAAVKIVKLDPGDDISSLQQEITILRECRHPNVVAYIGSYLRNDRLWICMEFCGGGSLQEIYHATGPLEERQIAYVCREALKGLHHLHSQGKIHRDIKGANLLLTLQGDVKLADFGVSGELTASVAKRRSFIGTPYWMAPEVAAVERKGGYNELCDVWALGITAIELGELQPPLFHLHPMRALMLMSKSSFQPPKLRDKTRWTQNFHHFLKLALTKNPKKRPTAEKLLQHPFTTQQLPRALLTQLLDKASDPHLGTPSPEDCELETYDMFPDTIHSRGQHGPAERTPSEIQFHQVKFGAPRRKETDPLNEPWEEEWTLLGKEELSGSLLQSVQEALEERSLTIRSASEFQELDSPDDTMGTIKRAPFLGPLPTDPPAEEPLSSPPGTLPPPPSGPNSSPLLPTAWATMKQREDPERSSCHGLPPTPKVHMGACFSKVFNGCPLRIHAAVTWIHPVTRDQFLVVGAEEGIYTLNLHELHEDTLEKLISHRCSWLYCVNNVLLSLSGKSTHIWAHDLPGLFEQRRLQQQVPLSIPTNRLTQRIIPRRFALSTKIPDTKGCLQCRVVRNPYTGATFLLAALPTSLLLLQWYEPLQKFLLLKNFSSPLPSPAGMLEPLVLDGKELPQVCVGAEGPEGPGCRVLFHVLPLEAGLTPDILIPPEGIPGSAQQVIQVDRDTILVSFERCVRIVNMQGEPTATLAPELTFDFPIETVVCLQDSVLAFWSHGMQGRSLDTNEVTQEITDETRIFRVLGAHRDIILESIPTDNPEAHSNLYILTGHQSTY

CABC1 = CABC1 (Homo sapiens, UniProt Q8NI60)
GSK3A = GSK3A (Homo sapiens, UniProt P49840)
CDC42BPG = CDC42BPG (Homo sapiens, UniProt Q6DT37)
CDC2 = CDC2 (Homo sapiens, UniProt P06493)
PIM1 = PIM1 (Homo sapiens, UniProt P11309)
PIK3R4 = PIK3R4 (Homo sapiens, UniProt Q99570)
EPHB4 = molecular target: T2, EPHB4 (Homo sapiens, UniProt P54760)
T2 sequence (P54760 1-987): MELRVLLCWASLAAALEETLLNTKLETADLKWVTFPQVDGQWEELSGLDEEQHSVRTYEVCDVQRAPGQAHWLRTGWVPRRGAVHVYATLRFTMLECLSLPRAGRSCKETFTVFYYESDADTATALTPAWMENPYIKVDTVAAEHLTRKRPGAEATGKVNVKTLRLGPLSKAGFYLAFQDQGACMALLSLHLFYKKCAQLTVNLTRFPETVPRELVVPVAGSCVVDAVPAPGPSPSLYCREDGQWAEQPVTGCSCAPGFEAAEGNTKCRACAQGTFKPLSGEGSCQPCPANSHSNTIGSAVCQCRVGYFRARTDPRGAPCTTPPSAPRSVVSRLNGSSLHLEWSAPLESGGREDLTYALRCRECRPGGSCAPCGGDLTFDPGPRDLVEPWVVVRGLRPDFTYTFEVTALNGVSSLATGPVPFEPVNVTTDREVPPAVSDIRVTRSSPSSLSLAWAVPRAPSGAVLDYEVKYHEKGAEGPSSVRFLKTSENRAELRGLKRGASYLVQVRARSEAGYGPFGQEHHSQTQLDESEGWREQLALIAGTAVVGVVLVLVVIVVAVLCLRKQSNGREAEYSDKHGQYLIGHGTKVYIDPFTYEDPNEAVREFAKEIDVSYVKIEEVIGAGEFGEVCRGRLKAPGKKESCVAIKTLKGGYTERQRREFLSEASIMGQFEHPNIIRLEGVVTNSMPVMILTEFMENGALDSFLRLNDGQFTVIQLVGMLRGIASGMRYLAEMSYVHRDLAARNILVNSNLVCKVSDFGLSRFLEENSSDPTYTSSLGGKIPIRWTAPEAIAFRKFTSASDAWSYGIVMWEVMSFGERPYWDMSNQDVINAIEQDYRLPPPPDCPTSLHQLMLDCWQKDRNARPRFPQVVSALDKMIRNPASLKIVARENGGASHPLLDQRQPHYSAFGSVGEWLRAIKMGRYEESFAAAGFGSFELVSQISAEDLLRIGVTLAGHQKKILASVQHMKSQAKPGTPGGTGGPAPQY

Chain of GSK3A (P49840 whole entry): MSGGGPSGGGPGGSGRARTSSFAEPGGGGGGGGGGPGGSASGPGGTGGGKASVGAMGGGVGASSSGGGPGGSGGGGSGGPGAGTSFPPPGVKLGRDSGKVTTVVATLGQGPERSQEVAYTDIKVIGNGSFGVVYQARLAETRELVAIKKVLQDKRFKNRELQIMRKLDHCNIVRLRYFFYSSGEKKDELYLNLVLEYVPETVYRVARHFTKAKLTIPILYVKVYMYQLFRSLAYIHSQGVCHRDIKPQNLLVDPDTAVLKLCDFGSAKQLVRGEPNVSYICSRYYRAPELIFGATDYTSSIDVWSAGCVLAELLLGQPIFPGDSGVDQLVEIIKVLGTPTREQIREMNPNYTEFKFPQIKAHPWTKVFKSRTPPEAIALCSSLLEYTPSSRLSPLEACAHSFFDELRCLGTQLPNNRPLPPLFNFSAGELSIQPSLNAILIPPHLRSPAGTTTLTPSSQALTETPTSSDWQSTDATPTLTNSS
Chain of PIM1 (P11309 whole entry): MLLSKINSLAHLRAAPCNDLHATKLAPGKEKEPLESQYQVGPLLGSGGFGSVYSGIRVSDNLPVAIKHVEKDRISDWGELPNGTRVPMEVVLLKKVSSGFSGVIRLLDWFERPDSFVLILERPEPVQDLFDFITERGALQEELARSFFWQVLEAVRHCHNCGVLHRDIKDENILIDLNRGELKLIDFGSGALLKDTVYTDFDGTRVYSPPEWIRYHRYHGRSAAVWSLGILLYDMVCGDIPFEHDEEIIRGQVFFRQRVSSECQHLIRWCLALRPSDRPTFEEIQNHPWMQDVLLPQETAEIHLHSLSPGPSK
Chain of CDC2 (P06493 whole entry): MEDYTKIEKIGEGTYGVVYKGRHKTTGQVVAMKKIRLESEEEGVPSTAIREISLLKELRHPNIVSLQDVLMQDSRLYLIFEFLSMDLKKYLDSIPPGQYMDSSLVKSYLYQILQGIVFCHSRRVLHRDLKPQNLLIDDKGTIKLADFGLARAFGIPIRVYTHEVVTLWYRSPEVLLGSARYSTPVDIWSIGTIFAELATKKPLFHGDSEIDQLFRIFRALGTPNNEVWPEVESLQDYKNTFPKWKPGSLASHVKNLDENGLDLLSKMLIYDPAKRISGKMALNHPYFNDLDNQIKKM
Chain of PIK3R4 (Q99570 whole entry): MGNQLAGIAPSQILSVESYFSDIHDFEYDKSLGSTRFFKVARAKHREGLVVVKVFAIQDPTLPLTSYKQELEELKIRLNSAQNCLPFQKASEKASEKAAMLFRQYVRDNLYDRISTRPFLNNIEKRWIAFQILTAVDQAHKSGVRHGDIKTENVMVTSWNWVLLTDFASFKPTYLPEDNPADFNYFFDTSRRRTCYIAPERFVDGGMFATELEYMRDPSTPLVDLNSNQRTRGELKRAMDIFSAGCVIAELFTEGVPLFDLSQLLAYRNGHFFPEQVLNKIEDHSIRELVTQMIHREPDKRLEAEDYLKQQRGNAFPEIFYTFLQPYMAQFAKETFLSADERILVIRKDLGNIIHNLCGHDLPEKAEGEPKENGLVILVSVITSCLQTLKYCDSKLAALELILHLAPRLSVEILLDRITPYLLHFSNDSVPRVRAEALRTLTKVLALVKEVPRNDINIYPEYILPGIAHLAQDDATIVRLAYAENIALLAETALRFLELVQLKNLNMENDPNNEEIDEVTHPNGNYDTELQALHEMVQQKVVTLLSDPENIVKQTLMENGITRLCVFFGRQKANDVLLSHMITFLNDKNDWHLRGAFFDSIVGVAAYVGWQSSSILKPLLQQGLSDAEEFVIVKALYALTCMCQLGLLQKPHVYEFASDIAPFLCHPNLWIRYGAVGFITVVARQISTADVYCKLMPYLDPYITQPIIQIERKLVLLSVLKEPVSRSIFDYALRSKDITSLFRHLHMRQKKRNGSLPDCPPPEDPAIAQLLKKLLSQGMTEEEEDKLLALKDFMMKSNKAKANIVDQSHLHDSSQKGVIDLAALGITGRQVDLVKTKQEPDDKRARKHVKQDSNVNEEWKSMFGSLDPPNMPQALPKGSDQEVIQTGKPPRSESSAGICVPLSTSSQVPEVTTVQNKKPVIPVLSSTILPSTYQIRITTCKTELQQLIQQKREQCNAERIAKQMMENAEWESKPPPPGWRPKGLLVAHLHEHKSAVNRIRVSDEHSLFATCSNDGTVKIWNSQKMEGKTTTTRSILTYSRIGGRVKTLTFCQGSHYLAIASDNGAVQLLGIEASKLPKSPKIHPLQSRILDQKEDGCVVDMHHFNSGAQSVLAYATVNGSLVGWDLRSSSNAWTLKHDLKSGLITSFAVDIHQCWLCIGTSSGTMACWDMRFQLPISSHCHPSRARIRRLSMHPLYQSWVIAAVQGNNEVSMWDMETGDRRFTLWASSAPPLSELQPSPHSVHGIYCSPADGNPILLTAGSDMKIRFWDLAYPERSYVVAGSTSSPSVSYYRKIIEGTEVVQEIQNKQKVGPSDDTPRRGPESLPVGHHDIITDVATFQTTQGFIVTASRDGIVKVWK
Chain of CDC42BPG (Q6DT37 whole entry): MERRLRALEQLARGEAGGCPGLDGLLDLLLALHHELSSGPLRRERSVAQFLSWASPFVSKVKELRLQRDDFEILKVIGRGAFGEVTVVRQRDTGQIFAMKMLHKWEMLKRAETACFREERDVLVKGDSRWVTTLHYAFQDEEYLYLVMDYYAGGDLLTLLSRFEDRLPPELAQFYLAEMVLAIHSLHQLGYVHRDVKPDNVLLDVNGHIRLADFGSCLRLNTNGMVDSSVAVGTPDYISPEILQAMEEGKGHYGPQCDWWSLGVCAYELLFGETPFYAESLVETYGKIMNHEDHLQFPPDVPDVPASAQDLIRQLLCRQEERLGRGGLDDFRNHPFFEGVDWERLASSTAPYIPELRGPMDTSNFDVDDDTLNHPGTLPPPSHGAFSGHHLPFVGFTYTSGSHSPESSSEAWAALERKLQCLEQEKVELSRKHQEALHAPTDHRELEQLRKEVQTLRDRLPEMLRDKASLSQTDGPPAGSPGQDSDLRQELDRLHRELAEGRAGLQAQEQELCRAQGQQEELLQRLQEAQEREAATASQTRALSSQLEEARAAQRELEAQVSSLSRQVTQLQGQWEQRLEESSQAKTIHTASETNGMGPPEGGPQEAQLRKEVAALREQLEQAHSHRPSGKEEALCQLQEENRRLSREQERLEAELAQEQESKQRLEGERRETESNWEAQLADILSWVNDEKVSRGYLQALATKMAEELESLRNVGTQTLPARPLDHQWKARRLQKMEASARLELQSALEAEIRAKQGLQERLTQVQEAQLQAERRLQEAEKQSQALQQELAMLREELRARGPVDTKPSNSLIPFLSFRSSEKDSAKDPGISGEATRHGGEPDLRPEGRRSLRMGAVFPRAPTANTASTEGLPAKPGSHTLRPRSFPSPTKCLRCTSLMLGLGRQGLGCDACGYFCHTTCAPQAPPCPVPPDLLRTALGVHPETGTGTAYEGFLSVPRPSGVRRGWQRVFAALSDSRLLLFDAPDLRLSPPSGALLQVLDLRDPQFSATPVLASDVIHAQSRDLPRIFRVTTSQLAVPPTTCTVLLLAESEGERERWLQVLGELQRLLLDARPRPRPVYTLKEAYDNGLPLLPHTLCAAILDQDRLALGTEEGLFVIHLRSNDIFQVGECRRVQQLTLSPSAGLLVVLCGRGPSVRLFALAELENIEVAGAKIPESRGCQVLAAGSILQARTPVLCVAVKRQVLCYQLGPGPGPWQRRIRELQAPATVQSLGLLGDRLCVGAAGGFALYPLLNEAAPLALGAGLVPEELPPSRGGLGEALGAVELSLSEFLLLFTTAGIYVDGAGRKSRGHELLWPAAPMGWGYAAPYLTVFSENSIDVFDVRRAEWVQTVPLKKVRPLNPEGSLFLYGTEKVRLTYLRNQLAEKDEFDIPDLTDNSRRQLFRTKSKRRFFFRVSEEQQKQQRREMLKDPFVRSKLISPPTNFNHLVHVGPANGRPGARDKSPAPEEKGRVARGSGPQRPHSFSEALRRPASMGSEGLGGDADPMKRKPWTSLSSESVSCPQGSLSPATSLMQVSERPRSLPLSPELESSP
Chain of CABC1 (Q8NI60 whole entry): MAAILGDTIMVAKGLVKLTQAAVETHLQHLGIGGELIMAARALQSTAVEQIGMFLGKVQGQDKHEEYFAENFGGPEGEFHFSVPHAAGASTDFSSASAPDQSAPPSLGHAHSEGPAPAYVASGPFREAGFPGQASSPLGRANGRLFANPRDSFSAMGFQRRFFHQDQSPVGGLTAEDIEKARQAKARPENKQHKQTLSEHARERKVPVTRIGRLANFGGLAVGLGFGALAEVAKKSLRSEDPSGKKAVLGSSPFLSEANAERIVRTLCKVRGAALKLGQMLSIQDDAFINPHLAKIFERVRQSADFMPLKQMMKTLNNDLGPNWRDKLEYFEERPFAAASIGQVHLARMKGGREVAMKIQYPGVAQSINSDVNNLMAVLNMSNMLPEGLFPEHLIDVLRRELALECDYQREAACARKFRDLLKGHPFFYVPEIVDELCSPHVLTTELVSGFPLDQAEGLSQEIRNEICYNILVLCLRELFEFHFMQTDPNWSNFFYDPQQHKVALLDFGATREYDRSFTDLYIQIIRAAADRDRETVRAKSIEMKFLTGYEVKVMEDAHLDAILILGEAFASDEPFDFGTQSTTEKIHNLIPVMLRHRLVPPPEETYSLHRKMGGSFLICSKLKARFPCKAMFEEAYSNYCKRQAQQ

| Structure (SMILES) | IC50 (MAP4K2) [µM] | IC50 (CABC1) [µM] | IC50 (GSK3A) | IC50 (CDC42BPG) [µM] | IC50 (CDC2) [µM] | IC50 (PIM1) | IC50 (PIK3R4) [µM] | IC50 (EPHB4) [µM] |
| --- | --- | --- | --- | --- | --- | --- | --- | --- |
| CN(C)CC(O)COc1ccc(Nc2ncc([N+](=O)[O-])c(Nc3ccccc3O)n2)cc1.O=C(O)C(F)(F)F (stereo not drawn) [TCMDC-141399] | > 20 | > 20 | 6.7 µM and 7.4 µM | 9.6 | > 20 | > 20 µM | > 20 | > 20 |
| Cl.NCC1(c2nc(-c3ccc(Cl)c(O)c3)c(-c3ccncc3)[nH]2)CCCCC1 [TCMDC-141154] | > 20 | > 20 | > 20 µM | 8 | > 20 | > 20 µM | > 20 | 5.3 |
| CN1CCN(c2ccc(Nc3ncc(C#N)c(Nc4ccccc4C(N)=O)n3)cc2)CC1.Cl [TCMDC-134116] | 1 | > 20 | 1.4 µM and 1.1 µM | 1 | 1.5 | 7.2 µM and 6 µM | 2.2 | 4.3 |

From article PMC4774911, “Biochemical Screening of Five Protein Kinases from Plasmodium falciparum against 14,000 Cell-Active Compounds” (PLoS ONE, 2016)
